{
  "source": "patent US20120039905A1",
  "about": "“The Role of p110 delta Signaling in Morbidity and Lung Pathology Induced by Influenza Virus Infection” (priority 2009, published 2012)",
  "key": {"[1]": {"system": "influenza virus strain PR8", "format": "cell-based"}, "[2]": {"system": "H7N7 A/Equine/London/1416/73 influenza virus strain", "set-up": "species or system mice", "conditions": "mouse, in vivo"}},
  "note": "Entries after “also recorded” stand apart in the source; their conditions may differ.",
  "data": [
    {"compound": "Cc1ccccc1-n1c(Cn2cnc3c(N)ncnc32)nc2cccc(C)c2c1=O", "note": "[IC87114]", "values": [
      {"measurement": "reduction of viral mRNA production compared to untreated cells", "setting": "[1]", "result": "~25", "unit": "fold"},
      {"measurement": "influenza virus replication (specific RT-PCR)", "setting": "[1]; 100 μM", "result": "inhibits influenza virus replication"},
      {"measurement": "survival after lethal challenge", "setting": "[2]", "result": "increased survival; also recorded: protects mice lethally challenged"}
    ]}
  ]
}
